Data published in paper PMC8831244 (Nature methods, 2022).

Tests used:
OxLight1 [1] = target: T1, OxLight1 (Homo sapiens, UniProt O43614, DEL254-292/I293E/K294R/L160H/M161K/Q254E); format: cell-based; settings: Almorexant 10 μM after OXB 5 μM
T1 sequence (O43614 with tags, fused parts or gaps L160H/M161K/DEL254-292/I293E/K294R): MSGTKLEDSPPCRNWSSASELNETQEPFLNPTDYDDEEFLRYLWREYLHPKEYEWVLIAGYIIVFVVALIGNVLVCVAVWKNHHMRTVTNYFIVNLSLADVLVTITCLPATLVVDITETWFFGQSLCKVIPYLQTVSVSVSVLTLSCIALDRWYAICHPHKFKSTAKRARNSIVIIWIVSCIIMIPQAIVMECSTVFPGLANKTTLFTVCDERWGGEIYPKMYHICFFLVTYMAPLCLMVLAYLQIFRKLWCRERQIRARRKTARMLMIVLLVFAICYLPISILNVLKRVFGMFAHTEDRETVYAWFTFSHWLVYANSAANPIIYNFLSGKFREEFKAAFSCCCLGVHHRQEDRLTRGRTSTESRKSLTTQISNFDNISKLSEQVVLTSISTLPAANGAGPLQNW

[2] = system: OxLight1 in basal forebrain or LH; test: Photometry with polysomnographic recordings across sleep-wake states; format: in vivo, mouse; settings: 50 mg/kg, per os, mice
OxLight1 [3] = test: Photometry during anesthesia; format: in vivo, mouse; settings: isoflurane 2% 10 min or medetomidine 0.5 mg/kg i.p., mice
OxLight1 [4] = target: T1, OxLight1; format: cell-based; settings: 10 μM, HEK293T
OxLight1 [5] = target: T1, OxLight1; format: cell-based; settings: OxLight1, 10 μM orexin, HEK cells, mean ± SEM
OX2R [6] = test: Intracellular calcium signaling, OX2R-expressing HEK293T cells; format: cell-based, human; settings: orexin-A and orexin-B
OxLight1 [7] = target: T1, OxLight1; format: cell-based; settings: 10 μM, HEK293T, 37°C, mono-exponential fit, n = 8 dishes, mean ± SEM
OX2R [8] = test: beta-Arrestin-2 recruitment to OX2R, TIRF microscopy; format: cell-based, human; settings: agonist stimulation 15 min
OX2R [9] = test: Mini-G protein recruitment to OX2R, TIRF microscopy; format: cell-based, human; settings: OXB 50 nM

In the case of CNC(=O)[C@@H](c1ccccc1)N1CCc2cc(OC)c(OC)cc2[C@@H]1CCc1ccc(C(F)(F)F)cc1 [Almorexant], the “reversal of fluorescence response” value (OxLight1 [1]) is reported as “fully reversed”.

In the case of Cc1ccc(-n2nccn2)c(C(=O)N2CCN(c3nc4cc(Cl)ccc4o3)CC[C@H]2C)c1 [Suvorexant], the “effect on OxLight1 response across sleep-wake states” value [2] is reported as “significantly reduced the response of OxLight1”.

FC(F)OC(Cl)C(F)(F)F (stereo not shown) [isoflurane] was tested, and the “effect on OxLight1 signal” value (OxLight1 [3]) was “significant decrease in OxLight1 signal”.

In the case of Cc1cccc(C(C)c2cnc[nH]2)c1C (stereo not shown) [medetomidine], the “effect on OxLight1 signal” value (OxLight1 [3]) is reported as “no change”.

For Dynorphin, the “OxLight1 response to neuropeptide” value (OxLight1 [4]) was “lack of response”.

For “orexin-B: endogenous orexin neuropeptide”, the “ΔF/F0, maximal response” value (OxLight1 [5]) was 859 ± 27%, the “intracellular Ca2+ response” value (OX2R [6]) was “robust intracellular Ca^2+ responses” and the “activation time constant τ” value (OxLight1 [7]) was 618 ± 98 ms.

B1: OX2R: wild-type human orexin type-2 receptor (protein, UniProt O43614 1-444, looked up)
Orexin receptor type 2: MSGTKLEDSPPCRNWSSASELNETQEPFLNPTDYDDEEFLRYLWREYLHPKEYEWVLIAGYIIVFVVALIGNVLVCVAVWKNHHMRTVTNYFIVNLSLADVLVTITCLPATLVVDITETWFFGQSLCKVIPYLQTVSVSVSVLTLSCIALDRWYAICHPLMFKSTAKRARNSIVIIWIVSCIIMIPQAIVMECSTVFPGLANKTTLFTVCDERWGGEIYPKMYHICFFLVTYMAPLCLMVLAYLQIFRKLWCRQIPGTSSVVQRKWKPLQPVSQPRGPGQPTKSRMSAVAAEIKQIRARRKTARMLMIVLLVFAICYLPISILNVLKRVFGMFAHTEDRETVYAWFTFSHWLVYANSAANPIIYNFLSGKFREEFKAAFSCCCLGVHHRQEDRLTRGRTSTESRKSLTTQISNFDNISKLSEQVVLTSISTLPAANGAGPLQNW
In the case of B1, the β-arrestin-2 engagement (OX2R [8]) is reported as “robust β-arrestin-2 engagement” and the mini-G recruitment (OX2R [9]) is reported as “selective and strong recruitment of mini-Gq”.
